From article PMC9096233, “Identification of an Au(I) N-Heterocyclic Carbene Compound as a Bactericidal Agent Against Pseudomonas aeruginosa” (Frontiers in Chemistry, 2022)

Columns and labels:
[1] = system: P. aeruginosa; assay: Bacterial growth curves; assay type: cell-based, Pseudomonas aeruginosa; details: growth curves
Description: Pseudomonas aeruginosa strain PAO1 (P. aeruginosa) was grown in M9 minimal medium (1.0 g/L NH4Cl, 0.5 g/L NaCl, 6.0 g/L Na2HPO4, 3.0 g/L KH2PO4) supplemented with 1.0 mM MgSO4, 1.0 mM ZnSO4, 0.2 mM CaCl2, 0.4% (w/v) glucose and 0.2% (w/v) casein hydrolysate. Gram-negative Escherichia coli strain K-12 (E. coli) and Burkholderia cepacia J2315 (B. cepacia) were cultured in Luria-Bertani (LB) medium (5 g/L yeast extract, 10 g/L tryptone, 10 g/L sodium chloride). The Gram-positive Staphylococcus aureus strain Newman (S. aureus) was grown in Tryptic Soy Broth (TSB) medium (17 g/L Tryptone, 3 g/L Phytone, 5 g/L sodium chloride, 2.5 g/L dipotassium phosphate and glucose 2.5 g/L).

[2] = system: LasB elastase; assay: LasB elastase, Elastin-Congo red assay; assay type: cell-based, Pseudomonas aeruginosa; details: 15 μM; 24 h
Description: (§1) To quantify the secreted virulence factors, overnight P. aeruginosa PAO1 was diluted in fresh M9 medium and cultured to a final OD600 value of 0.15. Then Au1 or auranofin were added into culture with indicated concentrations. After 24 h incubation at 37°C, the bacterial supernatants were collected by centrifugation at 4,000 g for 10 min at 4°C and filtered using a 0.22 μm syringe filter (Millipore). The secreted virulence factors in the supernatant were quantified by the methods described below.
The LasB elastase was examined by Elastin-Congo red assay ([Morihara et al., 1965]). In brief, 700 μL of bacterial supernatant was incubated with 700 μL of 10 mg/ml Elastin-Congo (Sigma-Aldrich) red elastase substrate in reaction buffer (100 mM Tris-HCl, 1 mM CaCl2, pH 7.5) at 37°C for 3 h with shaking. Then 0.2 ml EDTA was added to a final concentration of 10 mM to stop the cleavage reaction. Insoluble pellets were removed by centrifugation and the absorbance of the supernatant at 495 nm was measured.

[3] = system: rhamnolipid; assay: Rhamnolipid measurement (anthrone); assay type: cell-based, Pseudomonas aeruginosa; details: 15 μM
Description: as §1
For rhamnolipid measurement, rhamnolipid was extracted from the supernatant with a mixture of chloroform and methanol (v:v = 2:1). The organic solvent phase was then evaporated to dryness and 100 μL methanol was added to dissolve the extracted rhamnolipid. Then 200 μL of pre-cooled anthrone solution (dissolving 2 g of anthrone in 1 L of concentrated H2SO4) was added into 20 μL extracted rhamnolipid sample and heat at 80°C for 30min. The rhamnolipid concentration was determined by measurement the absorbance at 630 nm.

[4] = system: pyoverdine; assay: Quantification of secreted pyoverdine; assay type: cell-based, Pseudomonas aeruginosa; details: 15 μM; 24 h
Description: as §1

[5] = system: P. aeruginosa; assay: Drug resistance development assay (serial passage); assay type: cell-based, Pseudomonas aeruginosa; details: serial passage at sub-lethal concentrations over 14 days
Description: Development of resistance to the Au1 compound and the antibiotics (ciprofloxacin and tobramycin) were assessed as described by [Habets and Brockhurst (2012)]. The MIC assay was performed on the first day as described above. […] Thereafter, a new passage MIC measurement assay was prepared using diluted bacterial cells grown at 0.5-fold MIC suspension. This was repeated for 14 passages and the MIC values for Au1, ciprofloxacin and tobramycin were recorded for each passage.

[6] = system: lung carcinoma A549 cell; assay: MTT cytotoxicity assay; assay type: cell-based, Human; details: 48 h
Description: The cytotoxicity of gold compounds to mammalian cells was measured using the 3-(4, 5-dimethylthiazol-2-yl)-2, 5-diphenyltetrazolium bromide (MTT) assay. Human hepatocyte L-O2 cell, and lung carcinoma A549 cell were cultured in Corning 96 well microplates (10^4 cells per well) at 37°C for 18 h. Then the cells were incubated with gradient concentrations of gold compounds at 37°C for another 48 h. After the treatment, cell culture media were removed and the plates were wash with PBS for three times. And 90 μL fresh media and 10 μL 5 mg/ml MTT solution were added to each well and further incubated at 37°C for 4 h. Subsequently, the media were removed from the wells and 150 μL DMSO was added into each well to dissolve the formazan crystals. The absorbance at 490 nm of each well was measured with a micro-plate reader. The experiments were carried out in triplicates.

[7] = system: LasA protease; assay: LasA protease detection (azocasein); assay type: cell-based, Pseudomonas aeruginosa; details: 15 μM; 24 h
Description: as §1
For LasA protease detection, 5 μL of filtered supernatant was mixed with 1 ml of 0.5% azocasein (Sigma-Aldrich) in reaction buffer (50 mM Tris-HCl, 0.5 mM CaCl2, pH 7.5). The mixture was incubated at 37°C for 15 min. After reaction, 500 μL of 10% trichloroacetic (TCI Shanghai) acid was added and incubated for 30 min at room temperature. After centrifugation at 10,000 g for 20 min, the 440 nm absorbance of the collected supernatant was measured to quantify the secreted LasA protease.

[8] = system: pyocyanin; assay: Quantification of secreted pyocyanin; assay type: cell-based, Pseudomonas aeruginosa; details: 15 μM; 24 h
Description: as §1
The bacterial secreted pyocyanin was quantified as described previously ([Essar et al., 1990]). Approximately 10 ml bacterial supernatant medium was collected by centrifugation. Subsequently, 3 ml chloroform was added into medium to extract the pyocyanin. The pyocyanin was re-extracted into 1 ml of 0.2 M HCl to give a pink to deep red solution after approximately 30 min. The pyocyanin concentration was determined by measurement the absorbance at 520 nm.

With NHC^Me-Au-Cl [Au1] as the substance, how does the “concentration at which P. aeruginosa growth was completely inhibited” value [1] read?
The value was 20 µM.

And the “decrease of elastase secretion” value [2]?
The value was 38%.

And the synthesis of rhamnolipid [3]?
The synthesis of rhamnolipid was “significantly suppress”.

And the “decrease of pyoverdine siderophore secretion” value [4]?
The value was 50%.

What about the development of resistance [5] of the same substance?
Its development of resistance is “not observed”.

What about the IC50 [6] of the same substance?
The IC50 was 32.8 ± 1.6 µM.

What about the “decrease of LasA protease secretion” value [7] of the same substance?
Its value is 54%.

What about the pyocyanin secretion [8] of the same substance?
Its pyocyanin secretion is “almost completely inhibited”.
